Where “and” joins values, the source holds several entries; their conditions need not be identical. Equal entries are not always repeated.
How the values were obtained:
[1] = test system: filter discs and associated CAM tissue; assay: CAM assay scored from light microscopic photographs by blinded observers; format: in vivo, chicken; parameters: scale not given here; details: for Score: individual discs
Method: However, instead of using laser confocal microscopy to determine an FVD value for a test region of interest, the filter discs and associated CAM tissue were photographed under light microscopy. The light microscopic photographs were evaluated independently by three blinded observers, all experts in the study of angiogenesis. […] If the blinded observer felt that a disc had too much hemorrhage or artifact to make an accurate assessment of angiogenesis, it was eliminated from that observer's assessment (represented by a “-” in Tables 2-4).

[2] = test system: chorioallantoic membrane tissue of an embryonated chicken egg; assay: Modified CAM assay, fluorescent vascular density (FVD) by laser confocal microscopy after FITC-Dextran injection; format: in vivo; parameters: FVD Group Mean / FVD: scale not given here; details: for FVD: individual eggs
Method: Eighteen 10-day-old embryonated chicken eggs were obtained. A window was made in the shell of each egg. The chorioallantoic membranes were dropped to allow placement of a filter paper disc saturated with either basic fibroblast growth factor (bFGF) (1 μg/ml), as an angiogenic stimulator, or with a control solution (Clonetics EBM-2 media, Bio-Whittaker, Walersville, Md.). Twenty-four hours were allowed to elapse and a vessel was cannulated in each egg. Embryos that had received a filter disc saturated with bFGF then received a systemic injection of either Fumagillin (5 μg/egg, Calbiochem, San Diego, Calif.) in 0.1% dimethyl sulfoxide (DMSO) (Group A, n=3), or an injection of 0.1% DMSO carrier alone (Group B, n=5). Fumagillin is an organic compound with established antiangiogenic effects (see, e.g., Ingber et al., Nature, 348:555-557 (1990)). Embryos that had received a filter disc saturated with the control molecule received 0. 1% DMSO carrier injected systemically (Group C, n=10).
Forty-eight hours were allowed to elapse, and all eggs then received a systemic injection of fluorescein isothiocyanate (FITC)-Dextran (1 mg/ml), which was allowed to circulate for 30 minutes. Filter discs and associated CAM tissue (i.e., the region of interest) were excised from the egg and preserved in 10% formalin. The filter disc and region of interest were then laid out on a glass microscope slide and viewed using a laser confocal microscope (LSM 510 Laser Scanning Microscope, Carl Zeiss, Inc., Thronwood, N.Y.). The filter disc and region of interest were stimulated with an argon laser emitting at a wavelength of 488 nm. The resultant excitation was read using fluorescence filters at wavelengths of 505 nm and greater. The image was captured using LSM 5 Pascal software (Carl Zeiss, Inc.), through a microscope objective of 1.25×. The capture image data was formatted as 1024 pixels wide by 1024 pixels long, resulting in an overall image of 1,048,576 pixels, each with a brightness measured on a scale from 0 to 255. Multiple cross-sectional images were taken along a three-dimensional z-axis at 200 micron intervals through each filter disc and region of interest from each egg. Each filter disc and region of interest was thereby determined to have a fluorescent vascular density reflective of the density of vasculature of the CAM tissue associated with the filter disc. One filter disc in Group C was eliminated from analysis owing to gross extravasation of fluorescein, rendering it unreadable (represented by “-” in Table 1).

[3] = test system: endothelial cell proliferation in the CAM; assay: CAM-XTT cell proliferation assay, spectrophotometrical absorbance; format: in vivo, chicken; details: FGF 2.0 μg/mL disc; systemic 100 μM Fumagillin or 3 mg/mL LM609; relative to FGF + 0.1% DMSO carrier
Method: Ten 10-day old eggs were divided into four groups and prepared as in Example 1. The eggs received (A) filter disks saturated with a vehicle solution (0.1% bovine serum albumin (BSA)/phosphate-buffered saline (PBS)) and systemic injection of a carrier solution (0.1% DMSO), (B) filter disks saturated with a stimulator solution (2.0 μg/mL FGF) and systemic injection of carrier solution (0.1% DMSO), (C) filter disks saturated with a stimulator solution (2.0 μg/mL FGF) and systemic injection of an inhibitor (100 μM Fumagillin), or (D) filter disks saturated with a stimulator solution (2.0 μg/mL FGF) and systemic injection of an inhibitor (3 mg/mL LM609). […]
XTT is a tetrazolium salt, which is reduced within the mitochondria of metabolically active cells to form a colored formazan dye. The amount of formazan dye produced is quantitatively measured by spectrophotometrical absorbance (e.g., by an ELISA plate reader) at 450-500 nm. […]
5 mL of XTT labeling reagent and 0.1 mL electron coupling reagent were mixed together and 30 μL of the mixture was applied onto the CAM disk via pipette. […] At Day 13, the disks were harvested for light photomicroscopy and the mean spectrophotometrical absorbance at 450 nm was measured (reference wavelength 620 nm (Titertek Multiskan Ascent Plate Reader)).

[4] = Table 2, one blinded observer, Group A: bFGF disc + Fumagillin 5 μg/egg
[5] = Table 3, one blinded observer, Group A: bFGF disc + Fumagillin 5 μg/egg
[6] = Table 4, one blinded observer, Group A: bFGF disc + Fumagillin 5 μg/egg
[7] = Table 2, one blinded observer, Group B: bFGF disc + 0.1% DMSO carrier
[8] = Table 3, one blinded observer, Group B: bFGF disc + 0.1% DMSO carrier
[9] = Table 4, one blinded observer, Group B: bFGF disc + 0.1% DMSO carrier

Row | Molecule | Score Group Mean [1, 4] | Score [1, 4] | Score Group Mean [1, 5] | Score [1, 5] | Score Group Mean [1, 6] | Score [1, 6] | FVD ([2]; Treatment Group A: bFGF (1 μg/ml) filter disc, systemic Fumagillin 5 μg/egg in 0.1% DMSO, 48 h) | FVD Group Mean ([2]; Treatment Group A: bFGF (1 μg/ml) filter disc, systemic Fumagillin 5 μg/egg in 0.1% DMSO, n=3) | effect on fluorescent vascular density of bFGF-stimulated specimens ([2]; systemic injection, on average, relative to bFGF stimulation + control molecule (Group B)) | effect on spectrophotometrical absorbance (450 nm) of FGF-stimulated specimens [3] | Score Group Mean [1, 7] | Score [1, 7] | Score Group Mean [1, 8] | Score [1, 8] | Score Group Mean [1, 9] | Score [1, 9] | FVD ([2]; Treatment Group B: bFGF (1 μg/ml) filter disc, systemic 0.1% DMSO carrier alone) | FVD Group Mean ([2]; Treatment Group B: bFGF (1 μg/ml) filter disc, systemic 0.1% DMSO carrier alone, n=5)
1 | CO[C@@H]1[C@H](OC(=O)/C=C/C=C/C=C/C=C/C(=O)O)CC[C@]2(CO2)[C@H]1[C@@]1(C)O[C@@H]1CC=C(C)C [Fumagillin] | 2 | 2 | 2.7 | 2 and 3 (2×) | 2 | 3 and 2 and 1 | 0.0673 and 0.0533 and 1.5029 | 0.5412 | reduce the fluorescent vascular density | reduced the spectrophotometrical absorbance | – | – | – | – | – | – | – | –
2 | basic fibroblast growth factor [bFGF] | – | – | – | – | – | – | – | – | – | – | 1.8 | 2 (2×) and 3 and 1 (2×) | 2.4 | 2 and 3 (3×) and 1 | 2.2 | 2 (2×) and 3 (2×) and 1 | 2.5401 and 3.7715 and 1.9767 and 0.6873 and 2.6344 | 2.322
